“And” between values parts separate entries of the source, which are not always exact repeats. Equal values may be shown once. Numbers after ± are expanded uncertainties.
Compound: O=C(C(F)(F)C(F)(F)F)C(F)(C(F)(F)F)C(F)(F)F [dodecafluoro-2-methylpentan-3-one]
- thermal conductivity (387.99 K, 395 kPa, Gas, hot wire): 0.0199 ± 0.00094 W/m/K
- thermal conductivity (388 K, 395 kPa, Gas, hot wire): 0.01971 ± 0.00093 W/m/K
- thermal conductivity (388.06 K, 258 kPa, Gas, hot wire): 0.01842 ± 0.00087 W/m/K
- thermal conductivity (388.07 K, 128 kPa, Gas, hot wire): 0.01819 ± 0.00086 W/m/K and 0.01818 ± 0.00086 W/m/K
- thermal conductivity (388.08 K, 257 kPa, Gas, hot wire): 0.01826 ± 0.00086 W/m/K
- thermal conductivity (388.1 K, 26 kPa, Gas, hot wire): 0.01771 ± 0.00083 W/m/K and 0.01756 ± 0.00083 W/m/K
- thermal conductivity (388.1 K, 394 kPa, Gas, hot wire): 0.01994 ± 0.00095 W/m/K
- thermal conductivity (388.1 K, 395 kPa, Gas, hot wire): 0.01983 ± 0.00094 W/m/K
- thermal conductivity (388.18 K, 257 kPa, Gas, hot wire): 0.01851 ± 0.00087 W/m/K
- thermal conductivity (388.19 K, 128 kPa, Gas, hot wire): 0.01818 ± 0.00086 W/m/K
- thermal conductivity (388.19 K, 256 kPa, Gas, hot wire): 0.0184 ± 0.00087 W/m/K
- thermal conductivity (388.2 K, 128 kPa, Gas, hot wire): 0.01804 ± 0.00085 W/m/K
- thermal conductivity (388.2 K, 395 kPa, Gas, hot wire): 0.01983 ± 0.00094 W/m/K
- thermal conductivity (388.22 K, 394 kPa, Gas, hot wire): 0.01966 ± 0.00093 W/m/K
- thermal conductivity (388.23 K, 26 kPa, Gas, hot wire): 0.01766 ± 0.00083 W/m/K and 0.0176 ± 0.00083 W/m/K
- thermal conductivity (388.3 K, 256 kPa, Gas, hot wire): 0.01853 ± 0.00087 W/m/K
- thermal conductivity (388.31 K, 256 kPa, Gas, hot wire): 0.01853 ± 0.00087 W/m/K
- thermal conductivity (388.31 K, 396 kPa, Gas, hot wire): 0.01994 ± 0.00095 W/m/K
- thermal conductivity (388.32 K, 395 kPa, Gas, hot wire): 0.01985 ± 0.00094 W/m/K
- thermal conductivity (388.33 K, 127 kPa, Gas, hot wire): 0.01792 ± 0.00084 W/m/K
- thermal conductivity (388.33 K, 128 kPa, Gas, hot wire): 0.01804 ± 0.00085 W/m/K
- thermal conductivity (388.36 K, 26 kPa, Gas, hot wire): 0.0176 ± 0.00083 W/m/K
- thermal conductivity (388.37 K, 26 kPa, Gas, hot wire): 0.01755 ± 0.00082 W/m/K
- thermal conductivity (388.43 K, 254 kPa, Gas, hot wire): 0.01861 ± 0.00088 W/m/K
- thermal conductivity (388.43 K, 255 kPa, Gas, hot wire): 0.01863 ± 0.00088 W/m/K
- thermal conductivity (388.43 K, 396 kPa, Gas, hot wire): 0.01991 ± 0.00095 W/m/K
- thermal conductivity (388.45 K, 397 kPa, Gas, hot wire): 0.01966 ± 0.00093 W/m/K
- thermal conductivity (388.47 K, 127 kPa, Gas, hot wire): 0.01796 ± 0.00084 W/m/K
- thermal conductivity (388.48 K, 127 kPa, Gas, hot wire): 0.0179 ± 0.00084 W/m/K
- thermal conductivity (388.49 K, 516 kPa, Gas, transient hot wire): 0.01836 ± 0.0011 W/m/K
- thermal conductivity (388.5 K, 26 kPa, Gas, hot wire): 0.01759 ± 0.00083 W/m/K
- thermal conductivity (388.51 K, 26 kPa, Gas, hot wire): 0.01751 ± 0.00082 W/m/K
- thermal conductivity (388.53 K, 395 kPa, Gas, transient hot wire): 0.01832 ± 0.0011 W/m/K
- thermal conductivity (388.56 K, 254 kPa, Gas, hot wire): 0.01874 ± 0.00088 W/m/K
- thermal conductivity (388.56 K, 255 kPa, Gas, hot wire): 0.01872 ± 0.00088 W/m/K
- thermal conductivity (388.62 K, 127 kPa, Gas, hot wire): 0.01791 ± 0.00084 W/m/K
- thermal conductivity (388.62 K, 257 kPa, Gas, transient hot wire): 0.01852 ± 0.0011 W/m/K
- thermal conductivity (388.65 K, 26 kPa, Gas, hot wire): 0.01756 ± 0.00083 W/m/K
- thermal conductivity (388.66 K, 26 kPa, Gas, hot wire): 0.01755 ± 0.00082 W/m/K
- thermal conductivity (388.67 K, 515 kPa, Gas, transient hot wire): 0.01836 ± 0.0011 W/m/K
- thermal conductivity (388.68 K, 516 kPa, Gas, transient hot wire): 0.01848 ± 0.0011 W/m/K
- thermal conductivity (388.72 K, 394 kPa, Gas, transient hot wire): 0.01847 ± 0.0011 W/m/K
- thermal conductivity (388.73 K, 395 kPa, Gas, transient hot wire): 0.01843 ± 0.0011 W/m/K
- thermal conductivity (388.77 K, 619 kPa, Gas, transient hot wire): 0.01829 ± 0.0011 W/m/K
- thermal conductivity (388.79 K, 619 kPa, Gas, transient hot wire): 0.0182 ± 0.0011 W/m/K
- thermal conductivity (388.81 K, 257 kPa, Gas, transient hot wire): 0.01868 ± 0.0011 W/m/K
- thermal conductivity (388.82 K, 256 kPa, Gas, transient hot wire): 0.01825 ± 0.0011 W/m/K
- thermal conductivity (388.87 K, 514 kPa, Gas, transient hot wire): 0.01853 ± 0.0011 W/m/K
- thermal conductivity (388.93 K, 394 kPa, Gas, transient hot wire): 0.01809 ± 0.0011 W/m/K and 0.01843 ± 0.0011 W/m/K
- thermal conductivity (388.98 K, 619 kPa, Gas, transient hot wire): 0.01836 ± 0.0011 W/m/K and 0.01835 ± 0.0011 W/m/K
- thermal conductivity (389.04 K, 256 kPa, Gas, transient hot wire): 0.01865 ± 0.0011 W/m/K
- thermal conductivity (389.05 K, 256 kPa, Gas, transient hot wire): 0.01868 ± 0.0011 W/m/K
- thermal conductivity (389.08 K, 515 kPa, Gas, transient hot wire): 0.01859 ± 0.0011 W/m/K
- thermal conductivity (389.15 K, 395 kPa, Gas, transient hot wire): 0.01856 ± 0.0011 W/m/K
- thermal conductivity (389.19 K, 619 kPa, Gas, transient hot wire): 0.01856 ± 0.0011 W/m/K and 0.01854 ± 0.0011 W/m/K
- thermal conductivity (389.26 K, 256 kPa, Gas, transient hot wire): 0.01862 ± 0.0011 W/m/K
- thermal conductivity (389.27 K, 255 kPa, Gas, transient hot wire): 0.0187 ± 0.0011 W/m/K
- thermal conductivity (389.29 K, 513 kPa, Gas, transient hot wire): 0.01867 ± 0.0011 W/m/K
- thermal conductivity (389.29 K, 514 kPa, Gas, transient hot wire): 0.01867 ± 0.0011 W/m/K
- thermal conductivity (389.3 K, 67954 kPa, Liquid, transient hot wire): 0.07227 ± 0.0015 W/m/K
- thermal conductivity (389.31 K, 53809 kPa, Liquid, transient hot wire): 0.06794 ± 0.0014 W/m/K
- thermal conductivity (389.31 K, 53833 kPa, Liquid, transient hot wire): 0.06806 ± 0.0014 W/m/K
- thermal conductivity (389.31 K, 67979 kPa, Liquid, transient hot wire): 0.0723 ± 0.0015 W/m/K
- thermal conductivity (389.38 K, 396 kPa, Gas, transient hot wire): 0.01859 ± 0.0011 W/m/K
- thermal conductivity (389.38 K, 397 kPa, Gas, transient hot wire): 0.01856 ± 0.0011 W/m/K
- thermal conductivity (389.42 K, 40396 kPa, Liquid, transient hot wire): 0.06362 ± 0.0013 W/m/K
- thermal conductivity (389.42 K, 40406 kPa, Liquid, transient hot wire): 0.06374 ± 0.0013 W/m/K
- thermal conductivity (389.43 K, 67897 kPa, Liquid, transient hot wire): 0.07231 ± 0.0015 W/m/K
- thermal conductivity (389.43 K, 67923 kPa, Liquid, transient hot wire): 0.07209 ± 0.0015 W/m/K
- thermal conductivity (389.48 K, 29881 kPa, Liquid, transient hot wire): 0.05966 ± 0.0012 W/m/K
- thermal conductivity (389.5 K, 254 kPa, Gas, transient hot wire): 0.01874 ± 0.0012 W/m/K
- thermal conductivity (389.5 K, 53787 kPa, Liquid, transient hot wire): 0.06829 ± 0.0014 W/m/K
- thermal conductivity (389.51 K, 255 kPa, Gas, transient hot wire): 0.01838 ± 0.0011 W/m/K
- thermal conductivity (389.51 K, 53794 kPa, Liquid, transient hot wire): 0.06804 ± 0.0014 W/m/K
- thermal conductivity (389.53 K, 21435 kPa, Liquid, transient hot wire): 0.05599 ± 0.0012 W/m/K
- thermal conductivity (389.54 K, 21442 kPa, Liquid, transient hot wire): 0.05607 ± 0.0012 W/m/K
- thermal conductivity (389.56 K, 40379 kPa, Liquid, transient hot wire): 0.06355 ± 0.0013 W/m/K
- thermal conductivity (389.56 K, 40384 kPa, Liquid, transient hot wire): 0.06363 ± 0.0013 W/m/K
- thermal conductivity (389.57 K, 67853 kPa, Liquid, transient hot wire): 0.07219 ± 0.0015 W/m/K
- thermal conductivity (389.57 K, 67877 kPa, Liquid, transient hot wire): 0.0722 ± 0.0015 W/m/K
- thermal conductivity (389.58 K, 14725 kPa, Liquid, transient hot wire): 0.05279 ± 0.0011 W/m/K
- thermal conductivity (389.58 K, 14726 kPa, Liquid, transient hot wire): 0.05278 ± 0.0011 W/m/K
- thermal conductivity (389.63 K, 29870 kPa, Liquid, transient hot wire): 0.05967 ± 0.0012 W/m/K
- thermal conductivity (389.63 K, 29871 kPa, Liquid, transient hot wire): 0.05964 ± 0.0012 W/m/K

From the NIST ThermoML archive (doi:10.1021/acs.jced.8b00132)
